In ChEMBL document CHEMBL1127929, “The synthesis and serine -lactamase inhibitory activity of some phosphonamidate analogues of dipeptides” (1994):
In brackets after ≈: the same amount, converted by molar mass.

How the values were obtained:
[1] = target: Beta-lactamase (Enterobacter cloacae) (UniProt P05364)
Description: Minimum inhibitory concentration against Enterobacter cloacae N-1 organism

[2] = target: Beta-lactamase (Enterobacter cloacae) (UniProt P05364); experiment: Compound was tested for the inhibitory activity against Enterobacter cloacae P99 serine beta-lactamase
[3] = target: Beta-lactamase TEM (Escherichia coli) (UniProt P62593); experiment: Inhibitory activity against Escherichia coli TEM-1 serine beta-lactamase
Beta-lactamase TEM (Escherichia coli), sequence (P62593 whole entry): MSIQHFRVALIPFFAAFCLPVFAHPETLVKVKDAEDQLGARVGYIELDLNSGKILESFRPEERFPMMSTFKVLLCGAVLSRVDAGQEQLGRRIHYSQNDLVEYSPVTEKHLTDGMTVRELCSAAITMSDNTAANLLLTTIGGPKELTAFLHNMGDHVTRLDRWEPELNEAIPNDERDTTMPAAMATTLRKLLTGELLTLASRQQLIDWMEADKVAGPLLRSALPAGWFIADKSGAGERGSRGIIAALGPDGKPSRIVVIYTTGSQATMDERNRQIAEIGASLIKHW

[4] = target: Beta-lactamase (Staphylococcus aureus) (UniProt P00807); experiment: Inhibitory activity against Staphylococcus aureus penicillinase
Beta-lactamase (Staphylococcus aureus), sequence (P00807 whole entry): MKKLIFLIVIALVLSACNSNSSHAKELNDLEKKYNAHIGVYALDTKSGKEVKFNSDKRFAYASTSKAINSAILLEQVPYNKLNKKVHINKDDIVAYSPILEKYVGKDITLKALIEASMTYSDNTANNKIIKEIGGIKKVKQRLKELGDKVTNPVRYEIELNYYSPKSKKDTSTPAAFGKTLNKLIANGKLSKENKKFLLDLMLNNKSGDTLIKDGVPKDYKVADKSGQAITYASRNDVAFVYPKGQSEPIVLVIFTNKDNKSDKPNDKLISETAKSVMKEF

[5] = target: Beta-lactamase OXA-1 (Escherichia coli) (UniProt P13661); experiment: Compound was tested for the inhibitory activity against Escherichia coli OXA-1 serine beta-lactamase
Beta-lactamase OXA-1 (Escherichia coli), sequence (P13661 whole entry): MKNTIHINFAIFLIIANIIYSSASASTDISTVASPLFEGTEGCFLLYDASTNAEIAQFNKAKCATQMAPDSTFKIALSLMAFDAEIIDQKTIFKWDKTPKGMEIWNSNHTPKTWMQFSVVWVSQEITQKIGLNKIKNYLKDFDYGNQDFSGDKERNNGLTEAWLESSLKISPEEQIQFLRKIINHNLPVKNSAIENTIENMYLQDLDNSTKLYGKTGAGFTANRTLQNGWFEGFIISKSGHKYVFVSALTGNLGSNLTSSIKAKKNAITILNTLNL

[6] = target: T1, SHV-5 extended spectrum beta-lactamase (Escherichia coli) (UniProt Q6REX6); experiment: Compound was tested for the inhibitory activity against Escherichia coli SHV-5 serine beta-lactamase
T1 sequence (whole entry): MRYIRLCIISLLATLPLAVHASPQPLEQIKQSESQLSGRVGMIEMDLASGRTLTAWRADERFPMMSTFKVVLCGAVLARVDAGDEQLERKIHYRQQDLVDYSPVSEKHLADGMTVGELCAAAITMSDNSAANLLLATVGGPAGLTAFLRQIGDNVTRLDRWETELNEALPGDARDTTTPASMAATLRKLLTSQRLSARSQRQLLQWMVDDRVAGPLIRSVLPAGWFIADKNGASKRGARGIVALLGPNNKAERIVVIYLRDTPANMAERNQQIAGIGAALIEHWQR

[7] = test system: Proteus mirabilis; experiment: Compound was tested for the inhibitory activity against Proteus mirabilis carbenicillinase
[8] = target: T2, Beta-lactamase PSE-4 (Pseudomonas aeruginosa) (UniProt P16897); experiment: Compound was tested for the inhibitory activity against Pseudomonas aeruginosa PSE-4 serine beta-lactamase
T2 sequence (whole entry): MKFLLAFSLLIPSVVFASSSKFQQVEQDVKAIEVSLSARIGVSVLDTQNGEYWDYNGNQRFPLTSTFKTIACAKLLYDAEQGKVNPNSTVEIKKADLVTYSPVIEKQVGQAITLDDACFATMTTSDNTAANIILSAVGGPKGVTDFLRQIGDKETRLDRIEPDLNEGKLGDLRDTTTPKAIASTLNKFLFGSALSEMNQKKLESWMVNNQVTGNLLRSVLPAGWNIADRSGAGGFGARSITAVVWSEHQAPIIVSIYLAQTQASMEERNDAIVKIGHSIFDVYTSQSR

[9] = test system: Staphylococcus aureus; experiment: Minimum inhibitory concentration of 10 ug/ml compound in combination with amoxycillin against Staphylococcus aureus MB9 organism; assay type: functional
[10] = target: Beta-lactamase (Enterobacter cloacae) (UniProt P05364); experiment: Minimum inhibitory concentration of 10 ug/ml compound in combination with amoxycillin against Enterobacter cloacae N-1 organism; assay type: functional
[11] = test system: Staphylococcus aureus; experiment: Antibacterial activity against Staphylococcus aureus MB9 organism, activity expressed as MIC(minimum inhibitory concentration); assay type: functional
[12] = target: Beta-lactamase (Enterobacter cloacae) (UniProt P05364); remark: listed apart in the source
Description: Antibacterial activity against Enterobacter cloacae N-1 organism, activity expressed as MIC(minimum inhibitory concentration)

[13] = target: Beta-lactamase TEM (Escherichia coli) (UniProt P62593)
Description: Antibacterial activity against Escherichia coli E96P organism, activity expressed as MIC(minimum inhibitory concentration)

[14] = test system: Staphylococcus aureus; experiment: Minimum inhibitory concentration of 4 ug/ml compound in combination with amoxycillin against Staphylococcus aureus MB9 organism; assay type: functional
[15] = target: Beta-lactamase TEM (Escherichia coli) (UniProt P62593); experiment: Minimum inhibitory concentration of 4 ug/ml compound in combination with amoxycillin against Escherichia coli E96P organism; assay type: functional
[16] = target: Beta-lactamase (Enterobacter cloacae) (UniProt P05364); remark: listed apart in the source
Description: Minimum inhibitory concentration of 4 ug/ml compound in combination with amoxycillin against Enterobacter cloacae N-1 organism

[17] = test system: Staphylococcus aureus; experiment: Minimum inhibitory concentration against Staphylococcus aureus MB9 organism; assay type: functional
[18] = target: Beta-lactamase (Enterobacter cloacae) (UniProt P05364); experiment: Minimum inhibitory concentration of 10 ug/ml compound in combination with amoxycillin against Enterobacter cloacae N-1 organism,; assay type: functional

Beta-lactamase (Enterobacter cloacae), sequence (P05364 21-381 limits assumed): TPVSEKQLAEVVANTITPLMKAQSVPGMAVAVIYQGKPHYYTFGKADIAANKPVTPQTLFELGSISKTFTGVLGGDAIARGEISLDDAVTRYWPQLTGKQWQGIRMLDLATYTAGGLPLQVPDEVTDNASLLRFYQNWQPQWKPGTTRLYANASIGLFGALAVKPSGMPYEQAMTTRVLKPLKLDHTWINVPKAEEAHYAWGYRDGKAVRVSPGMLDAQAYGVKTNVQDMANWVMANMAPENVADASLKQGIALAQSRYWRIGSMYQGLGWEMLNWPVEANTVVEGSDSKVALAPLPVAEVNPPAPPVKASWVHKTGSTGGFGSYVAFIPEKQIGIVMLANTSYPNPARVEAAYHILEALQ

CC1(C)S[C@@H]2[C@H](NC(=O)[C@H](N)c3ccc(O)cc3)C(=O)N2[C@H]1C(=O)O
MIC [1]: 256 µg/mL (≈ 701 µM)

COP(=O)(CNC(=O)OCc1ccccc1)N1CCC[C@H]1C(=O)O (stereo partly specified)
ID50 [2]: 54 µM
ID50 [3]: > 100 µM
ID50 [4]: > 100 µM

O=C(NCP(=O)(O)N[C@H](Cc1ccccc1)C(=O)O)OCc1ccccc1
ID50 [2]: 3.8 µM
ID50 [5]: > 100 µM
ID50 [6]: > 100 µM
ID50 [3]: > 100 µM
ID50 [7]: > 100 µM
ID50 [8]: > 100 µM
ID50 [4]: > 100 µM

CC1(C)S[C@@H]2[C@H](NC(=O)C(N)c3ccc(O)cc3)C(=O)N2[C@H]1C(=O)O.O=C(NCP(=O)([O-])N[C@@H](Cc1ccccc1)C(=O)[O-])OCc1ccccc1.[Li+].[Li+]
MIC [9]: 64 µg/mL

CC1(C)S[C@@H]2[C@H](NC(=O)C(N)c3ccc(O)cc3)C(=O)N2[C@H]1C(=O)O.O=C(NCP(=O)(O)N[C@@H](Cc1ccccc1)C(=O)O)OCc1ccccc1
MIC [10]: 128 µg/mL

CC1(C)S[C@@H]2[C@H](NC(=O)C(N)c3ccc(O)cc3)C(=O)N2[C@H]1C(=O)O.O=C(NCP(=O)(O)NC(C(=O)O)c1ccccc1)OCc1ccccc1 (stereo unspecified)
MIC [10]: 32 µg/mL

CC1(C)S[C@@H]2[C@H](NC(=O)C(N)c3ccc(O)cc3)C(=O)N2[C@H]1C(=O)O.O=C([O-])CC(NP(=O)([O-])CNC(=O)OCc1ccccc1)c1ccccc1.[Li+].[Li+] (stereo unspecified)
MIC [9]: 8 µg/mL

O=C(O)[C@H]1/C(=C/CO)O[C@@H]2CC(=O)N21 [CLAVULANIC ACID]
ID50 [2]: 310 µM
ID50 [5]: 3.4 µM
ID50 [6]: 0.013 µM
ID50 [3]: 0.315 µM
ID50 [7]: 0.51 µM
ID50 [8]: 0.235 µM
ID50 [4]: 0.38 µM
MIC [11]: 32 µg/mL (≈ 161 µM)
MIC [12]: 32 µg/mL (≈ 161 µM)
MIC [13]: 32 µg/mL (≈ 161 µM)

CC1(C)S[C@@H]2[C@H](NC(=O)[C@H](N)c3ccc(O)cc3)C(=O)N2[C@H]1C(=O)O.O=C(O)[C@H]1/C(=C/CO)O[C@@H]2CC(=O)N21 [listing 1 of 2 here]
MIC [14]: 0.12 µg/mL

CC1(C)S[C@@H]2[C@H](NC(=O)[C@H](N)c3ccc(O)cc3)C(=O)N2[C@H]1C(=O)O.O=C(O)[C@H]1/C(=C/CO)O[C@@H]2CC(=O)N21 [listing 2 of 2 here]
MIC [15]: 16 µg/mL
MIC [16]: 256 µg/mL

CC1(C)S[C@@H]2[C@H](NC(=O)C(N)c3ccc(O)cc3)C(=O)N2[C@H]1C(=O)O.O=C(O)CC(NP(=O)(O)CNC(=O)OCc1ccccc1)c1ccccc1 (stereo unspecified)
MIC [10]: 16 µg/mL

CC1(C)S[C@@H]2[C@H](NC(=O)C(N)c3ccc(O)cc3)C(=O)N2[C@H]1C(=O)O.O=C(O)CCNP(=O)(O)CNC(=O)OCc1ccccc1 (stereo partly specified)
MIC [10]: 44 µg/mL

CC1(C)S[C@@H]2[C@H](NC(=O)C(N)c3ccc(O)cc3)C(=O)N2[C@H]1C(=O)O.O=C(NCP(=O)([O-])N[C@H](Cc1ccccc1)C(=O)[O-])OCc1ccccc1.[Li+].[Li+]
MIC [9]: 64 µg/mL

COP(=O)(CNC(=O)OCc1ccccc1)N1CCC[C@@H]1C(=O)O (stereo partly specified)
ID50 [2]: 67 µM
ID50 [3]: > 100 µM
ID50 [4]: > 100 µM

O=C(O)CNP(=O)(O)CNC(=O)OCc1ccccc1
ID50 [2]: 2.29 µg/mL
ID50 [5]: 30 µM
ID50 [6]: > 100 µM
ID50 [3]: > 100 µg/mL
ID50 [7]: > 100 µM
ID50 [8]: > 100 µM
ID50 [4]: > 100 µg/mL

O=C(O)CC(NP(=O)(O)CNC(=O)OCc1ccccc1)c1ccccc1 (stereo unspecified)
ID50 [2]: 0.87 µM
ID50 [5]: 46 µM
ID50 [6]: 63 µM
ID50 [3]: > 50 µM
ID50 [7]: > 100 µM
ID50 [8]: 83 µM
ID50 [4]: > 35 µM

COP(=O)(CNC(=O)OCc1ccccc1)N1CSC(C)(C)[C@@H]1C(=O)O (stereo partly specified)
ID50 [2]: > 100 µM
ID50 [3]: > 100 µM
ID50 [4]: > 100 µM

CC1(C)S[C@@H]2[C@H](NC(=O)C(N)c3ccc(O)cc3)C(=O)N2[C@H]1C(=O)O.O=C(NCP(=O)(O)N[C@H](Cc1ccccc1)C(=O)O)OCc1ccccc1
MIC [10]: 128 µg/mL

O=C(O)CNCP(=O)(O)CNC(=O)OCc1ccccc1
ID50 [2]: > 100 µM
ID50 [3]: > 100 µM
ID50 [4]: > 100 µM

O=C(NCP(=O)(O)N[C@@H](C(=O)O)c1ccccc1)OCc1ccccc1
ID50 [2]: 4.16 µM
ID50 [5]: > 100 µM
ID50 [6]: > 100 µM
ID50 [3]: > 100 µM
ID50 [7]: > 100 µM
ID50 [8]: > 100 µM
ID50 [4]: > 100 µM

O=C(O)CCNP(=O)(O)CNC(=O)OCc1ccccc1
ID50 [2]: 0.87 µM
ID50 [5]: 14 µM
ID50 [6]: 33 µM
ID50 [3]: > 50 µM
ID50 [7]: > 100 µM
ID50 [8]: > 100 µM
ID50 [4]: > 25 µM

CC1(C)S[C@@H]2[C@H](NC(=O)[C@H](N)c3ccc(O)cc3)C(=O)N2[C@H]1C(=O)O [AMOXICILLIN]
MIC [17]: 256 µg/mL (≈ 701 µM)

CC1(C)S[C@@H]2[C@H](NC(=O)C(N)c3ccc(O)cc3)C(=O)N2[C@H]1C(=O)O.O=C([O-])CNP(=O)([O-])CNC(=O)OCc1ccccc1.[Li+].[Li+] (stereo partly specified)
MIC [9]: 64 µg/mL

CC1(C)S[C@@H]2[C@H](NC(=O)C(N)c3ccc(O)cc3)C(=O)N2[C@H]1C(=O)O.O=C(NCP(=O)([O-])NC(C(=O)[O-])c1ccccc1)OCc1ccccc1.[Li+].[Li+] (stereo unspecified)
MIC [9]: 64 µg/mL

CC1(C)S[C@@H]2[C@H](NC(=O)C(N)c3ccc(O)cc3)C(=O)N2[C@H]1C(=O)O.O=C(O)CNP(=O)(O)CNC(=O)OCc1ccccc1 (stereo partly specified)
MIC [18]: 32 µg/mL

CC1(C)S[C@@H]2[C@H](NC(=O)C(N)c3ccc(O)cc3)C(=O)N2[C@H]1C(=O)O.O=C([O-])CCNP(=O)([O-])CNC(=O)OCc1ccccc1.[Li+].[Li+] (stereo partly specified)
MIC [9]: 32 µg/mL

O=C(NCP(=O)(O)N[C@@H](Cc1ccccc1)C(=O)O)OCc1ccccc1
ID50 [2]: 0.75 µM
ID50 [5]: 60 µM
ID50 [6]: > 100 µM
ID50 [3]: > 50 µM
ID50 [7]: > 100 µM
ID50 [8]: 15 µM
ID50 [4]: > 33 µM
